Experimental data published in patent publication EP2818467A1, “Multi-target drug compounds for the treatment of neurodegenerative disorders” (Universitat de Barcelona, priority 2013, dated 2014).
Entries after “also recorded” stand apart in the source; their conditions may differ.

What was measured:
Assay type in all cases: in vivo
APP/PS1 mice [1] = assay: two-object recognition test (V-maze), cognitive performance; settings: male APP/PS1 mice, 5 month-old, 5 mg/kg i.p. once daily for 4 weeks, FIG 1; for memory impairment in the two-object recognition test: tested after 2 days of washing period, 5 mg/kg
Method: (§1) Animals and treatment: The experiments were carried out on male APP/PS1 mice, which express the human mutated forms APPswe and PS1dE9, and wild-type (WT) littermates which were 5 month-old at the beginning of the study. In the present work, identification of transgenic mice was carried out as follows: genomic DNA was isolated from 1-cm tail clips and genotyped by polymerase chain reaction (PCR) technique using the PCR conditions proposed by Jackson Laboratory. Animals were maintained under standard animal housing conditions in a normal 12-h dark-light cycle with free access to food and water. The sample size for experimentation was computed using the Power and Precision software (Biostat, Englewood, NJ, USA), assuming a power of 95% and no missing data. Animal procedures were conducted according to ethical guidelines (European Community Council Directive 86/609/EEC) and approved by the local ethical committee (UB-IDIBELL). […]
Behavioral evaluation of cognitive performance: The two-object recognition test was performed. […] On the second day, mice were placed for 9 min in the maze, where two identical objects were situated at the end of the arms, and the time that the mice spent exploring each object was recorded. […] The time that the animals spent exploring the two objects was recorded and an object recognition index was calculated as the difference between the time spent exploring the novel and the familiar object, divided by the total time spent exploring the two objects.
(§2) Densitometric quantification of glia around Aβ plaques: Astrocytic and microglial responses to Aβ deposition were evaluated by densitometric quantification of GFAP and Iba1 protein expression levels around Aβ plaques, respectively. […] Statistical analysis: Data were analyzed by two-way ANOVA with genotype and treatment or age as between factors, followed by Tukey's post hoc test when required. Aβ and glia quantifications were analyzed by one-way ANOVA followed by Tukey's post hoc test when required.

APP/PS1 mice [2] = assay: glial (Iba1) and Aβ double-immunofluorescence, microglia around Aβ plaques; settings: 5 mg/kg i.p. once daily for 4 weeks, compared to vehicle-treated APP/PS1 animals, FIG 4
Method: Animals and treatment: The experiments were carried out on male APP/PS1 mice, which express the human mutated forms APPswe and PS1dE9, and wild-type (WT) littermates which were 5 month-old at the beginning of the study. In the present work, identification of transgenic mice was carried out as follows: genomic DNA was isolated from 1-cm tail clips and genotyped by polymerase chain reaction (PCR) technique using the PCR conditions proposed by Jackson Laboratory. Animals were maintained under standard animal housing conditions in a normal 12-h dark-light cycle with free access to food and water. […]
(§3) Tissue Collection: At the end of the behavioral testing, the animals were sacrificed and their brains were removed. One brain hemisphere was dissected on ice, immediately frozen and stored at -80 °C until processing for protein or RNA quantification. […]
(§4) Glial and Aβ double-immunofluorescence: De-waxed sections were stained with a saturated solution of Sudan black B (Merck) for 30 min to block the autofluorescence of lipofuscin granules present in cell bodies, then rinsed in 70% ethanol and washed in distilled water. […] After washing, the sections were incubated with Alexa488 or Alexa546 (1:400, Molecular Probes) fluorescence secondary antibodies against the corresponding host species. […]

APP/PS1 mice [3] = assay: glial (GFAP) and Aβ double-immunofluorescence, astrocytes around Aβ plaques; settings: 5 mg/kg i.p. once daily for 4 weeks, FIG 3
Method: as §1, §3, §4
as §2, with “Aβ and glia quantifications were analyzed by one-way ANOVA followed by Tukey's post hoc test when required.” left out

APP/PS1 mice [4] = assay: Aβ immunohistochemistry, Aβ burden in neocortex; settings: 5 mg/kg/day i.p. for 4 weeks, compared to vehicle-treated animals
Method: Animals and treatment: The experiments were carried out on male APP/PS1 mice, which express the human mutated forms APPswe and PS1dE9, and wild-type (WT) littermates which were 5 month-old at the beginning of the study. In the present work, identification of transgenic mice was carried out as follows: genomic DNA was isolated from 1-cm tail clips and genotyped by polymerase chain reaction (PCR) technique using the PCR conditions proposed by Jackson Laboratory. Animals were maintained under standard animal housing conditions in a normal 12-h dark-light cycle with free access to food and water. The sample size for experimentation was computed using the Power and Precision software (Biostat, Englewood, NJ, USA), assuming a power of 95% and no missing data. Animal procedures were conducted according to ethical guidelines (European Community Council Directive 86/609/EEC) and approved by the local ethical committee (UB-IDIBELL). The compounds (5 mg/kg) were dissolved in 1% DMSO and 99% saline, and were injected intraperitoneally (i.p.) in a volume of 10 mL/kg body weight. Animals were treated once daily for 4 weeks with (αS,7R,11R)-(Ia), (αS,7S,11S)-(Ia), (±)-(Ib), (±)-(Ic) or the corresponding vehicle (VEH) (wild-type, n = 6; APP/PS1, n = 6, each group). After 2 days of washing period, animals were subjected to behavioral evaluation.
Tissue Collection: At the end of the behavioral testing, the animals were sacrificed and their brains were removed. One brain hemisphere was dissected on ice, immediately frozen and stored at -80 °C until processing for protein or RNA quantification. The other brain hemisphere was fixed in 4% paraformaldehyde and processed for immunohistochemistry.
Aβ immunohistochemistry: Tissue samples were embedded in paraffin and coronal sections (4 µm) were cut with a microtome. […] No immunostaining was detected in these sections. […] The Aβ burden in neocortex was calculated as the percentage of the Aβ deposition area with respect to the total area in 9 representative pictures, corresponding to the main regions where Aβ deposition is observed in APP/PS1 mice. Sections from all the APP/PS1 animals were evaluated by using the Analysis tool of the software Adobe® Photoshop® CS4.
as §2

Row | SMILES | memory impairment in the two-object recognition test (APP/PS1 mice [1]) | number of microglial cells associated with Aβ plaques (Iba1/Aβ) (APP/PS1 mice [2]) | number of astrocytes around Aβ plaques (GFAP/Aβ) (APP/PS1 mice [3]) | Aβ burden in the cortex (APP/PS1 mice [4]; FIG 2, 5 mg/kg/day) | Aβ burden in the cortex (APP/PS1 mice [4]; FIG 2) | recognition index (APP/PS1 mice [1]; compared to vehicle-treated animals)
1 | CC[C@@H](C(=O)NCCCCCCCNc1c2c(nc3cc(Cl)ccc13)C[C@H]1C=C(C)C[C@@H]2C1)N1CCCC1=O [(αS,7S,11S)-(Ia), (-)-(αS,7S,11S)-N-{7-[(3-chloro-6,7,10,11-tetrahydro-9-methyl-7,11-methanocycloocta[b]quinolin-12-yl)amino]heptyl}-2-(2-oxopyrrolidin-1-yl)butanamide] | did not exhibit memory impairment; also recorded: reverse the memory impairment | decreased microglial reaction | produced a tendency to reduce | tends to reduce; also recorded: reduction in the cortical Aβ plaques deposition |  | 
2 | CC[C@@H](C(=O)NCCCCCCCNc1c2c(nc3cc(Cl)ccc13)C[C@@H]1C=C(C)C[C@H]2C1)N1CCCC1=O [(αS,7R,11R)-(Ia), (+)-(αS,7R,11R)-N-{7-[(3-chloro-6,7,10,11-tetrahydro-9-methyl-7,11-methanocycloocta[b]quinolin-12-yl)amino]heptyl}-2-(2-oxopyrrolidin-1-yl)butanamide] |  |  | produced a tendency to reduce |  | tends to reduce | 
3 | CCC(C(=O)NCCCCCCCNc1c2c(nc3ccccc13)CCCC2)N1CCCC1=O (racemic) [(±)-(Ic), (±)-N-{7-[(1,2,3,4-tetrahydroacridin-9-yl)amino]heptyl}-2-(2-oxopyrrolidin-1-yl)butanamide] | did not exhibit memory impairment; also recorded: reverse the memory impairment |  |  |  | tends to reduce | significantly increased
4 | CCC(C(=O)NCCCCCCCNc1c2c(nc3cc(Cl)ccc13)CCCC2)N1CCCC1=O (racemic) [(±)-(Ib), (±)-N-{7-[(6-chloro-1,2,3,4-tetrahydroacridin-9-yl)amino]heptyl}-2-(2-oxopyrrolidin-1-yl)butanamide] |  |  | produced a tendency to reduce |  | tends to reduce | 
